# Test system: multiple myeloma cell lines
# Test: Annexin V/PI apoptosis assay, multiple myeloma cell line panel
# Type: cell-based
# Conditions: 24 h
# Description: After treatment adherent cells were trypsinized (as described before), and resuspended in corresponding full medium. Suspension cells or trypsinized adherent cells, supernatant and washing solution (1×PBS from washing before trypsinization) were pooled and then spun down (300 g for 3 min) washed in 2 ml and resuspended in 1000 of annexin V binding buffer and mixed with 2 μg/ml annexin V-Allophycocyanin (APC) (BD-Pharmingen, San Diego, Calif., USA) and 50 ng/ml of propidium iodide (PI; Sigma Aldrich). At least 10.000 cells were measured per sample using a Becton Dickinson FACSCalibur flow Cytometer (San Jose, Calif., USA). Percentage of Annexin V negative and PI negative cells were depicted in the figures. For the analysis of the pro-apoptotic activity of Imiquimod® in primary MM cells and non-malignant BMMCs, 5×10^5 cells BMMCs cells were treated with or without 40 μg/ml Imiquimod® for the indicated time periods. Cells were then harvested and washed twice with PBS. Detection of apoptotic cells was performed using the annexin V/PI assay according to manufacturers' instruction. Briefly, BMMCs were stained with a mixture of annexin V/FITC (Alexis Coorp., Laeufelfingen, Switzerland), propidium iodide (Sigma), anti-CD38-PE and anti-CD45-PC5 for 15 min at room temperature and immediately analyzed by flow cytometry. The percentages of viable cells (i.e. cells negative for annexin V/FITC and PI) within the MM (CD38^posCD45^low/absent) and non-MM fraction (CD38^neg/CD45^pos) were determined by flow cytometry.
# Adherent cells were grown in 24-well plates to confluence and treated with 40 μg/ml Imiquimod® for 24 h. Cells were then trypsinized, suspended in full medium, stained for AnnexinV/PI and apoptosis was measured as described before. Suspension cells (250.000) were treated with 40 μg/ml Imiquimod® for 24 h, stained for Annexin/PI and apoptosis was measured as described above (Annexin V/Propidium Iodide apoptosis Assay).
smiles,measurement,setting,value
"CC(C)Cn1cnc2c(N)nc3ccccc3c21 [Imiquimod, 1-(2-methylpropyl)-1H-imidazo[4,5-c]quinolin-4-amine]","apoptosis induction, single agent","OPM2, LP-1, RPMI, U266, Imiquimod 20 μg/ml or Akti1/2 5 or 10 μM alone",some apoptosis
same,sensitivity (apoptosis),"OPM2, U266, LP1, NCI, 40 μg/ml",sensitive
